PMC2790544 (Biochemistry, 2009)

System: Sec(GLP1TM4-5)R
Assay: cAMP response
Assay type: cell-based, human
Conditions: COS cells, LANCE, basal 2.1±0.5

## CC(C)C[C@H](NC(=O)CNC(=O)[C@H](CCC(N)=O)NC(=O)[C@H](CC(C)C)NC(=O)[C@H](CC(C)C)NC(=O)[C@H](CCCNC(=N)N)NC(=O)[C@H](CCC(N)=O)NC(=O)[C@H](CC(C)C)NC(=O)[C@H](CCCNC(=N)N)NC(=O)[C@H](C)NC(=O)CNC(=O)[C@H](CCC(=O)O)NC(=O)[C@H](CCCNC(=N)N)NC(=O)[C@H](CC(C)C)NC(=O)[C@H](CCCNC(=N)N)NC(=O)[C@H](CO)NC(=O)[C@H](CC(C)C)NC(=O)[C@H](CCC(=O)O)NC(=O)[C@H](CO)NC(=O)[C@@H](NC(=O)[C@H](Cc1ccccc1)NC(=O)[C@@H](NC(=O)CNC(=O)[C@H](CC(=O)O)NC(=O)[C@H](CO)NC(=O)[C@@H](N)Cc1c[nH]cn1)[C@@H](C)O)[C@@H](C)O)C(=O)N[C@H](C(N)=O)C(C)C [secretin]
  maximal cAMP level (Emax): 149±15 picomoles per million cells
